{"source": "ChEMBL document CHEMBL1201862", "about": "“PubChem BioAssay data set” (2004)", "assay_in_all_cases": "NCI-60 cell line screen, 48 h", "key": {"[1]": {"test_system": "UO-31"}, "[2]": {"test_system": "SF-268"}, "[3]": {"test_system": "NCI-H460"}, "[4]": {"test_system": "OVCAR-5"}, "[5]": {"test_system": "BT-549"}, "[6]": {"test_system": "U-251"}, "[7]": {"test_system": "SW-620"}, "[8]": {"test_system": "SK-OV-3"}, "[9]": {"test_system": "SNB-75"}, "[10]": {"test_system": "OVCAR-3"}, "[11]": {"test_system": "SK-MEL-28"}, "[12]": {"test_system": "MDA-MB-435"}, "[13]": {"test_system": "A549"}, "[14]": {"test_system": "EKVX"}, "[15]": {"test_system": "HCT-15"}, "[16]": {"test_system": "T47D"}, "[17]": {"test_system": "HCC 2998"}, "[18]": {"test_system": "IGROV-1"}, "[19]": {"test_system": "PC-3"}, "[20]": {"test_system": "786-0"}, "[21]": {"test_system": "UACC-257"}, "[22]": {"test_system": "A498"}, "[23]": {"test_system": "COLO 205"}, "[24]": {"test_system": "ACHN"}, "[25]": {"test_system": "SF-295"}, "[26]": {"test_system": "HT-29"}, "[27]": {"test_system": "MDA-N"}, "[28]": {"test_system": "NCI/ADR-RES"}, "[29]": {"test_system": "MOLT-4"}, "[30]": {"test_system": "M14"}, "[31]": {"test_system": "SK-MEL-2"}, "[32]": {"test_system": "NCI-H522"}, "[33]": {"test_system": "HOP-62"}, "[34]": {"test_system": "MCF7"}, "[35]": {"test_system": "SF-539"}, "[36]": {"test_system": "TK-10"}, "[37]": {"test_system": "SR"}, "[38]": {"test_system": "DU-145"}, "[39]": {"test_system": "OVCAR-8"}, "[40]": {"test_system": "SNB-19"}, "[41]": {"test_system": "HL-60"}, "[42]": {"test_system": "HOP-92"}, "[43]": {"test_system": "K562"}, "[44]": {"test_system": "SN12C"}, "[45]": {"test_system": "HCT-116"}, "[46]": {"test_system": "NCI-H226"}, "[47]": {"test_system": "KM12"}, "[48]": {"test_system": "SK-MEL-5"}, "[49]": {"test_system": "CCRF-CEM"}, "[50]": {"test_system": "RXF 393"}, "[51]": {"test_system": "LOX IMVI"}, "[52]": {"test_system": "NCI-H23"}, "[53]": {"test_system": "OVCAR-4"}, "[54]": {"test_system": "UACC-62"}, "[55]": {"test_system": "Malme-3M"}, "[56]": {"test_system": "MDA-MB-231"}}, "note": "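Five concentrations, 48 hours, 96-well plates. GI50 is the concentration that inhibits growth by half.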 Activity calls are given as the source filed them. No stated cut-off is given here; in the data, active = GI50 up to about 1.1 µM and inactive = higher.", "data": [{"smiles": "COC(=O)C1C(O)CCC2CN3CCc4c([nH]c5ccccc45)C3CC21", "note": "(centres undefined)", "values": [{"measurement": "GI50", "setting": "[1]", "value": "> 100 µM (inactive)"}, {"measurement": "GI50", "setting": "[2]", "value": "> 100 µM (inactive)"}, {"measurement": "GI50", "setting": "[3]", "value": "> 100 µM (inactive)"}, {"measurement": "GI50", "setting": "[4]", "value": "> 100 µM (inactive)"}, {"measurement": "GI50", "setting": "[5]", "value": "> 100 µM (inactive)"}, {"measurement": "GI50", "setting": "[6]", "value": "> 100 µM (inactive)"}, {"measurement": "GI50", "setting": "[7]", "value": "> 100 µM (inactive)"}, {"measurement": "GI50", "setting": "[8]", "value": "> 100 µM (inactive)"}, {"measurement": "GI50", "setting": "[9]", "value": "> 100 µM (inactive)"}, {"measurement": "GI50", "setting": "[10]", "value": "> 100 µM (inactive)"}, {"measurement": "GI50", "setting": "[11]", "value": "76 µM (inactive)"}, {"measurement": "GI50", "setting": "[12]", "value": "> 100 µM (inactive)"}, {"measurement": "GI50", "setting": "[13]", "value": "> 100 µM (inactive)"}, {"measurement": "GI50", "setting": "[14]", "value": "> 100 µM (inactive)"}, {"measurement": "GI50", "setting": "[15]", "value": "> 100", "unit": "µM"}, {"measurement": "GI50", "setting": "[16]", "value": "> 100 µM (inactive)"}, {"measurement": "GI50", "setting": "[17]", "value": "59.4 µM (inactive)"}, {"measurement": "GI50", "setting": "[18]", "value": "> 100 µM (inactive)"}, {"measurement": "GI50", "setting": "[19]", "value": "> 100 µM (inactive)"}, {"measurement": "GI50", "setting": "[20]", "value": "> 100 µM (inactive)"}, {"measurement": "GI50", "setting": "[21]", "value": "> 100 µM (inactive)"}]}, {"smiles": "CC(=O)OCC1OC(n2c3c(c(-c4ccc(Cl)cc4)c(C#N)c2=S)CCCC3)C(OC(C)=O)C(OC(C)=O)C1OC(C)=O", "note": "(centres undefined)", "values": [{"measurement": "GI50", "setting": "[22]", "value": "35.2 µM (inactive)"}, {"measurement": "GI50", "setting": "[23]", "value": "35.2 µM (inactive)"}, {"measurement": "GI50", "setting": "[1]", "value": "4.4 µM (inactive)"}, {"measurement": "GI50", "setting": "[24]", "value": "43.8 µM (inactive)"}, {"measurement": "GI50", "setting": "[2]", "value": "96.6 µM (inactive)"}, {"measurement": "GI50", "setting": "[3]", "value": "42.5 µM (inactive)"}, {"measurement": "GI50", "setting": "[25]", "value": "37.9 µM (inactive)"}, {"measurement": "GI50", "setting": "[4]", "value": "> 100 µM (inactive)"}, {"measurement": "GI50", "setting": "[6]", "value": "88.9 µM (inactive)"}, {"measurement": "GI50", "setting": "[26]", "value": "57.5 µM (inactive)"}, {"measurement": "GI50", "setting": "[27]", "value": "42.8 µM (inactive)"}, {"measurement": "GI50", "setting": "[28]", "value": "46.5 µM (inactive)"}, {"measurement": "GI50", "setting": "[29]", "value": "25.1 µM (inactive)"}, {"measurement": "GI50", "setting": "[30]", "value": "81.1 µM (inactive)"}, {"measurement": "GI50", "setting": "[31]", "value": "30.6 µM (inactive)"}, {"measurement": "GI50", "setting": "[32]", "value": "40.7 µM (inactive)"}, {"measurement": "GI50", "setting": "[33]", "value": "97.3 µM (inactive)"}, {"measurement": "GI50", "setting": "[34]", "value": "> 100 µM (inactive)"}, {"measurement": "GI50", "setting": "[8]", "value": "75.2 µM (inactive)"}, {"measurement": "GI50", "setting": "[9]", "value": "15.3 µM (inactive)"}, {"measurement": "GI50", "setting": "[35]", "value": "74.5 µM (inactive)"}, {"measurement": "GI50", "setting": "[36]", "value": "44.9 µM (inactive)"}, {"measurement": "GI50", "setting": "[37]", "value": "> 100 µM (inactive)"}, {"measurement": "GI50", "setting": "[38]", "value": "42.6 µM (inactive)"}, {"measurement": "GI50", "setting": "[39]", "value": "> 100 µM (inactive)"}, {"measurement": "GI50", "setting": "[40]", "value": "41.8 µM (inactive)"}, {"measurement": "GI50", "setting": "[41]", "value": "64.9 µM (inactive)"}, {"measurement": "GI50", "setting": "[42]", "value": "7.29 µM (inactive)"}, {"measurement": "GI50", "setting": "[43]", "value": "44 µM (inactive)"}, {"measurement": "GI50", "setting": "[44]", "value": "88.5 µM (inactive)"}, {"measurement": "GI50", "setting": "[45]", "value": "33.3 µM (inactive)"}, {"measurement": "GI50", "setting": "[46]", "value": "36.6 µM (inactive)"}, {"measurement": "GI50", "setting": "[10]", "value": "21.7 µM (inactive)"}, {"measurement": "GI50", "setting": "[47]", "value": "71.4 µM (inactive)"}, {"measurement": "GI50", "setting": "[48]", "value": "16.7 µM (inactive)"}, {"measurement": "GI50", "setting": "[49]", "value": "40.7 µM (inactive)"}, {"measurement": "GI50", "setting": "[11]", "value": "32.4 µM (inactive)"}, {"measurement": "GI50", "setting": "[12]", "value": "67.3 µM (inactive)"}, {"measurement": "GI50", "setting": "[50]", "value": "23.5 µM (inactive)"}, {"measurement": "GI50", "setting": "[51]", "value": "44.9 µM (inactive)"}, {"measurement": "GI50", "setting": "[13]", "value": "36.1 µM (inactive)"}, {"measurement": "GI50", "setting": "[52]", "value": "46.5 µM (inactive)"}, {"measurement": "GI50", "setting": "[15]", "value": 61.2, "unit": "µM"}, {"measurement": "GI50", "setting": "[53]", "value": "25.5 µM (inactive)"}, {"measurement": "GI50", "setting": "[16]", "value": "36.7 µM (inactive)"}, {"measurement": "GI50", "setting": "[54]", "value": "23.3 µM (inactive)"}, {"measurement": "GI50", "setting": "[17]", "value": "> 100 µM (inactive)"}, {"measurement": "GI50", "setting": "[18]", "value": "45.9 µM (inactive)"}, {"measurement": "GI50", "setting": "[55]", "value": "56.8 µM (inactive)"}, {"measurement": "GI50", "setting": "[19]", "value": "25.5 µM (inactive)"}, {"measurement": "GI50", "setting": "[20]", "value": "80.7 µM (inactive)"}, {"measurement": "GI50", "setting": "[21]", "value": "51.9 µM (inactive)"}, {"measurement": "GI50", "setting": "[56]", "value": "> 100 µM (inactive)"}]}]}
